The target in one data set is B-Raf V600E (Homo sapiens, UniProt P15056, V600E). Put plainly: B-Raf V600E biochemical kinase inhibition (AlphaScreen, biotin-MEK1 substrate). The settings on record: 100 μM ATP. The method, boiled down: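 Eight-point compound series (made from a 0.1 mM DMSO stock) tested against each Raf enzyme with biotin-MEK1 substrate and 100 μM final ATP.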
(In general: Bead proximity is the source of the signal in Alpha formats.)

Data set [1] deals with A375 melanoma cells (B-Raf V600E). Put plainly: A375 cell growth inhibition (ATPlite). In kind it is cell-based. The conditions noted are these: Homo sapiens, A-375, 72 h; A375, 3 days incubation. In short, it runs like this:
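ATPlite luminescence, taken as a cell-number measure, gave IC50 values after a 3-day 37° C, 5% CO2 incubation. Compounds were tested as 8-point threefold titrations, highest final concentration 10 μM, added to cells seeded the day before.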
In general terms: ATP-based viability assays read luminescence as a measure of living cells.

The next data set concerns the target CYP2C19 (Homo sapiens, UniProt P33261). Put plainly: CYP2C19 inhibition (fluorescent substrate). Format: in vitro ADME. The conditions noted are these: CYP2C19, CEC substrate; read-out: Cyp IC50 2C19. In short, it runs like this: (§1)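 10-pt 1:1 serial dilution in co-factor mix (DMSO stock 100 mM); 10 min preincubation, 37 °C; reaction at 37 °C. Readout: fluorescent metabolite of probe substrate. IC50 from signal vs [compound].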

For the next data set, the target named is CYP2C9 (Homo sapiens, UniProt P11712). Put plainly: CYP2C9 inhibition (fluorescent substrate). The conditions noted are these: CYP2C9, MFC substrate; read-out: Cyp IC50 2C9. In kind it is in vitro ADME. In short, it runs like this:
as §1

Another data set has as its target CYP2D6 (Homo sapiens, UniProt P10635). The experiment in a line: CYP2D6 inhibition (fluorescent substrate). In kind it is in vitro ADME. The settings on record: CYP2D6, AMMC substrate; read-out: Cyp IC50 2D6. The method, boiled down:
as §1

Molecules are shown by their SMILES.

Drawing on patent US8198273B2, “Compounds and methods for kinase modulation, and indications therefor” (Plexxikon Inc., priority 2009, dated 2012), this text covers IC50 for 12 molecules.

By IC50 is commonly meant the point on the concentration scale where inhibition reaches its midpoint.

B-Raf V600E, sequence (P15056 whole entry V600E): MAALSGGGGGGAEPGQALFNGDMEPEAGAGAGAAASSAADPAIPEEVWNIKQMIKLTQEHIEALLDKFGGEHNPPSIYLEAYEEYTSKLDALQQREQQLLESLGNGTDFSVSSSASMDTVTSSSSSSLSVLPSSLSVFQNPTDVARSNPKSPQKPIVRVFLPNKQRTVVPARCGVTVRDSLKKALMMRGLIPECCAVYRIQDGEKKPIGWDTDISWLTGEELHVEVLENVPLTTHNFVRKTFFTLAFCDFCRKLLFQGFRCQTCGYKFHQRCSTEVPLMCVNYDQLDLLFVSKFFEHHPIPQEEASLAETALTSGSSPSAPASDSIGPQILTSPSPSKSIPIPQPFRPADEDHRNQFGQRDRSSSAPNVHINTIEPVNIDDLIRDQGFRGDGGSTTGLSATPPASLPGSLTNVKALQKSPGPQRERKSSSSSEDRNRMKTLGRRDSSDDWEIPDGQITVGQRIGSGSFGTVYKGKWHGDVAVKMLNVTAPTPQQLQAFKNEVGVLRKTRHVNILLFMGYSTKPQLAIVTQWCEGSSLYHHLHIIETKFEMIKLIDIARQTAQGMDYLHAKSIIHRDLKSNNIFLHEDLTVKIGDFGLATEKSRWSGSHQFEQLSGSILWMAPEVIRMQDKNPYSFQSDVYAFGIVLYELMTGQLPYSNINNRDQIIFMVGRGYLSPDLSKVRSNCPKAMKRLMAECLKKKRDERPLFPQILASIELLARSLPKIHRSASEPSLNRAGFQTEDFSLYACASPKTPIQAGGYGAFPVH
CYP2C9, sequence (P11712 whole entry): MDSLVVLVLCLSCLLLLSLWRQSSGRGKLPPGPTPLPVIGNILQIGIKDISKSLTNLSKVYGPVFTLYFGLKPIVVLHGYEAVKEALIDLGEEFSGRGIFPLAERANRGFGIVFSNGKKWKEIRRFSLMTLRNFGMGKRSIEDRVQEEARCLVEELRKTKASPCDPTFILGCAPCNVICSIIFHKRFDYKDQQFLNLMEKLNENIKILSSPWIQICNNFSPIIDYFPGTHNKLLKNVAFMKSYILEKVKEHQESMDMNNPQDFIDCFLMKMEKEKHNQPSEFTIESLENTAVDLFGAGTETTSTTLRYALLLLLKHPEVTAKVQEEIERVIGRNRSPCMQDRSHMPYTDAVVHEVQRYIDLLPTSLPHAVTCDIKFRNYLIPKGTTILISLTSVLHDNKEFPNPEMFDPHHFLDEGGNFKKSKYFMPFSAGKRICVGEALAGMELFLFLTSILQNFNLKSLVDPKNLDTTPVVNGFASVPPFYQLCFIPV
CYP2D6, sequence (P10635 whole entry): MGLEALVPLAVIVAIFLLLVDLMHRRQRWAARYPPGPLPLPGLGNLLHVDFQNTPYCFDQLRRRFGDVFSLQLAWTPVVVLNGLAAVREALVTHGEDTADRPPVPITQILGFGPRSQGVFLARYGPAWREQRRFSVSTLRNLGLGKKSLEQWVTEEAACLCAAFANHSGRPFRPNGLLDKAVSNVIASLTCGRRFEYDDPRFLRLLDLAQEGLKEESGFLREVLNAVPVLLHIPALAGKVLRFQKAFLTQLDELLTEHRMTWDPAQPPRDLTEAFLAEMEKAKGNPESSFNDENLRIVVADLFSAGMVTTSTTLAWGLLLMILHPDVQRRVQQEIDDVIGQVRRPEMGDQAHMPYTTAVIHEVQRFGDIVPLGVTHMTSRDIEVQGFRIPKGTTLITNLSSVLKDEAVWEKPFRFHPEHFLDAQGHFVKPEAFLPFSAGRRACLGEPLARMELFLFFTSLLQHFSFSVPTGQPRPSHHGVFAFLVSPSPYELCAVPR
CYP2C19, sequence (P33261 whole entry): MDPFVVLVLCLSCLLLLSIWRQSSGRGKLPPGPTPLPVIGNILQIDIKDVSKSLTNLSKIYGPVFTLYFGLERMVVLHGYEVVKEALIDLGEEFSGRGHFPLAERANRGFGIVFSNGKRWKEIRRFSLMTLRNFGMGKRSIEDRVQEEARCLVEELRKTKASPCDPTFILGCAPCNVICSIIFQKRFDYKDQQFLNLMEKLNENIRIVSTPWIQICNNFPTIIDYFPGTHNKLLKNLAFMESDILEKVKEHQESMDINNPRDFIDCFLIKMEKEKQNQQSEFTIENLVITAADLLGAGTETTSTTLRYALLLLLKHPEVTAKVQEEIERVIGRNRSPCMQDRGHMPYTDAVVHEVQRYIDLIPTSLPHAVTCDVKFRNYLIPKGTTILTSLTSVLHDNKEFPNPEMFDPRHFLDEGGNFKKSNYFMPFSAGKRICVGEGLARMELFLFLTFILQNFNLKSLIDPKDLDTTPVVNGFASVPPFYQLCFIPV

On to `CCCc1ccc(-c2cnc3[nH]cc(C(=O)c4c(F)ccc(NS(=O)(=O)CCC)c4F)c3c2)cn1` [P-2224, Propane-1-sulfonic acid {2,4-difluoro-3-[5-(6-propyl-pyridin-3-yl)-1H-pyrrolo[2,3-b]pyridine-3-carbonyl]-phenyl}-amide], for which the half-inhibitory concentration (IC50) was below 0.01 µM against B-Raf V600E; below 1 µM in data set [1]; 5 to 10 µM at CYP2C19; 5 to 10 µM at CYP2C9; above 10 µM at CYP2D6.
Take `CCCS(=O)(=O)Nc1ccc(F)c(C(=O)c2c[nH]c3ncc(-c4ccc(CCCOC)nc4)cc23)c1F` [P-2226, Propane-1-sulfonic acid (2,4-difluoro-3-{5-[6-(3-methoxy-propyl)-pyridin-3-yl]-1H-pyrrolo[2,3-b]pyridine-3-carbonyl}-phenyl)-amide]: the 50% inhibitory concentration (IC50) is below 0.01 µM at B-Raf V600E; below 0.1 µM in data set [1]; above 10 µM on CYP2C19; below 5 µM at CYP2C9; above 10 µM at CYP2D6.
As to `CCCS(=O)(=O)Nc1ccc(F)c(C(=O)c2c[nH]c3ncc(-c4cccc(S(C)(=O)=O)c4)cc23)c1F` [P-2228, Propane-1-sulfonic acid {2,4-difluoro-3-[5-(3-methanesulfonyl-phenyl)-1H-pyrrolo[2,3-b]pyridine-3-carbonyl]-phenyl}-amide], the IC50 is below 0.01 µM on B-Raf V600E; below 1 µM in data set [1]; above 10 µM at CYP2C19; above 10 µM on CYP2C9; above 10 µM at CYP2D6.
In the case of `CCCS(=O)(=O)Nc1ccc(F)c(C(=O)c2c[nH]c3ncc(-c4ccc(N5CCCC5)nc4)cc23)c1F` [P-2231, Propane-1-sulfonic acid {2,4-difluoro-3-[5-(6-pyrrolidin-1-yl-pyridin-3-yl)-1H-pyrrolo[2,3-b]pyridine-3-carbonyl]-phenyl}-amide], the IC50 against B-Raf V600E is below 0.01 µM; in data set [1] it was below 0.1 µM; at CYP2C19 it was 5 to 10 µM; on CYP2C9, 5 to 10 µM; at CYP2D6 it was above 10 µM.
As to `CCCS(=O)(=O)Nc1ccc(F)c(C(=O)c2c[nH]c3ncc(-c4ccc(OCCN5CCOCC5)nc4)cc23)c1F` [P-2232, Propane-1-sulfonic acid (2,4-difluoro-3-{5-[6-(2-morpholin-4-yl-ethoxy)-pyridin-3-yl]-1H-pyrrolo[2,3-b]pyridine-3-carbonyl}-phenyl)-amide], the IC50 on B-Raf V600E was below 0.01 µM; in data set [1], below 0.1 µM; at CYP2C19, above 10 µM; on CYP2C9, 5 to 10 µM; at CYP2D6, above 10 µM.
Turning to `CCCS(=O)(=O)Nc1ccc(F)c(C(=O)c2c[nH]c3ncc(-c4ccc(OCCN5CCCC5)nc4)cc23)c1F` [P-2233, Propane-1-sulfonic acid (2,4-difluoro-3-{5-[6-(2-pyrrolidin-1-yl-ethoxy)-pyridin-3-yl]-1H-pyrrolo[2,3-b]pyridine-3-carbonyl}-phenyl)-amide], the IC50 is below 0.01 µM against B-Raf V600E; below 0.1 µM in data set [1]; 5 to 10 µM at CYP2C19; above 10 µM on CYP2C9; above 10 µM on CYP2D6.
As to `CCCS(=O)(=O)Nc1ccc(F)c(C(=O)c2c[nH]c3ncc(-c4ccc(OCCCN5CCCC5)nc4)cc23)c1F` [P-2235, Propane-1-sulfonic acid (2,4-difluoro-3-{5-[6-(3-pyrrolidin-1-yl-propoxy)-pyridin-3-yl]-1H-pyrrolo[2,3-b]pyridine-3-carbonyl}-phenyl)-amide], the IC50 was below 0.01 µM on B-Raf V600E; below 0.1 µM in data set [1]; below 5 µM at CYP2C19; above 10 µM on CYP2C9; above 10 µM at CYP2D6.
With `CCCS(=O)(=O)Nc1ccc(F)c(C(=O)c2c[nH]c3ncc(-c4ccc(OCCCN5CCOCC5)nc4)cc23)c1F` [P-2236, Propane-1-sulfonic acid (2,4-difluoro-3-{5-[6-(3-morpholin-4-yl-propoxy)-pyridin-3-yl]-1H-pyrrolo[2,3-b]pyridine-3-carbonyl}-phenyl)-amide], the 50% inhibitory concentration (IC50) at B-Raf V600E was below 0.01 µM; in data set [1] it was below 0.1 µM; at CYP2C19, below 5 µM; at CYP2C9 it was below 5 µM; at CYP2D6 it was above 10 µM.
With `CCCS(=O)(=O)Nc1ccc(F)c(C(=O)c2c[nH]c3ncc(C#CCOC)cc23)c1F` [P-2239, Propane-1-sulfonic acid {2,4-difluoro-3-[5-(3-methoxy-prop-1-ynyl)-1H-pyrrolo[2,3-b]pyridine-3-carbonyl]-phenyl}-amide], the concentration for half-maximal inhibition (IC50) against B-Raf V600E is below 0.01 µM; in data set [1], below 1 µM; at CYP2C19, 5 to 10 µM; on CYP2C9 it was 5 to 10 µM; on CYP2D6 it was above 10 µM.
For `C#Cc1cnc2[nH]cc(C(=O)c3c(F)ccc(NS(=O)(=O)CCC)c3F)c2c1` [P-2260, Propane-1-sulfonic acid [3-(5-ethynyl-1H-pyrrolo[2,3-b]pyridine-3-carbonyl)-2,4-difluoro-phenyl]-amide], the IC50 was below 0.01 µM on B-Raf V600E; below 1 µM in data set [1]; 5 to 10 µM at CYP2C19; 5 to 10 µM on CYP2C9; above 10 µM at CYP2D6.
`CCCS(=O)(=O)Nc1cccc(C(=O)c2c[nH]c3ncc(-c4cnc(OC)nc4)cc23)c1F` [P-2407, Propane-1-sulfonic acid {2-fluoro-3-[5-(2-methoxy-pyrimidin-5-yl)-1H-pyrrolo[2,3-b]pyridine-3-carbonyl]-phenyl}-amide]: the IC50 was below 0.01 µM against B-Raf V600E; below 1 µM in data set [1]; below 5 µM at CYP2C19; above 10 µM on CYP2C9; above 10 µM at CYP2D6.
With `CCCS(=O)(=O)Nc1cccc(C(=O)c2c[nH]c3ncc(-c4cnc(N(C)C)nc4)cc23)c1F` [P-2408, Propane-1-sulfonic acid {3-[5-(2-dimethylamino-pyrimidin-5-yl)-1H-pyrrolo[2,3-b]pyridine-3-carbonyl]-2-fluoro-phenyl}-amide], the IC50 against B-Raf V600E is below 0.01 µM; in data set [1], below 0.1 µM; at CYP2C19 it was above 10 µM; at CYP2C9, 5 to 10 µM; on CYP2D6 it was above 10 µM.
